Assay: Adverse events graded by NCI CTCAE version 4.03, phase I/IIa study
Format: in vivo
Experimental: Part 1 included adult patients with HR^+/HER2^− advanced breast cancer or mBC (third- or fourth-line setting), locally recurrent/advanced or metastatic TNBC, or advanced platinum-resistant epithelial ovarian cancer/fallopian tube cancer/primary peritoneal cancer who received oral PF-06873600 at doses of 1 to 50 mg twice daily or oral PF-06873600 plus ET (letrozole or fulvestrant). Primary endpoints for part 1 dose escalation determined safety and tolerability to define dose-limiting toxicities (DLT), estimate the maximum tolerated dose, and select the recommended dose for expansion (RDE). Safety endpoints included adverse events (AE) characterized by type, frequency, severity [as graded by NCI Common Terminology Criteria for Adverse Events (CTCAE) version 4.03], timing, seriousness, and relationship to study therapy. Laboratory abnormalities were characterized by type, frequency, severity (as graded by NCI CTCAE version 4.03), timing, vital sign abnormalities, and heart rate–corrected QT interval (e.g., QTcF). Secondary endpoints included PK, preliminary antitumor activity as assessed using RECIST version 1.1, time-to-event endpoints including objective response rate (ORR), duration of response (DoR), progression-free survival (PFS), time to progression (TTP), and modulation of tumor CDK biomarkers [phosphorylated Rb (pRb), Ki67]. Exploratory endpoints included molecular profiling of tumor and ctDNA and the relationship to clinical outcome.
AEs were graded by NCI CTCAE version 4.03.

[1] = Part 2A 25 mg BID IR + Fulvestrant, N = 45
[2] = Part 2C 25 mg BID IR + Fulvestrant, N = 28

C[C@@]1(O)CCC[C@H]1n1c(=O)c(C(F)F)cc2cnc(NC3CCN(S(C)(=O)=O)CC3)nc21 [PF-06873600]
Treatment-related TEAE, Abdominal pain, Grade 1 [1]: 7 (15.6) n (%)
Treatment-related TEAE, Abdominal pain, Grade 2 [1]: 1 (2.2) n (%)
Treatment-related TEAE, Abdominal pain, Grade 3/4 [1]: 0 n (%)
Treatment-related TEAE, Abdominal pain, Grade 5 [1]: 0 n (%)
Treatment-related TEAE, Abdominal pain, Total [1]: 8 (17.8) n (%)
Treatment-related TEAE, Alopecia, Grade 1 [1]: 7 (15.6) n (%)
Treatment-related TEAE, Alopecia, Grade 2 [1]: 9 (20.0) n (%)
Treatment-related TEAE, Alopecia, Grade 3/4 [1]: 0 n (%)
Treatment-related TEAE, Alopecia, Grade 5 [1]: 0 n (%)
Treatment-related TEAE, Alopecia, Total [1]: 16 (35.6 ) n (%)
Treatment-related TEAE, Anemia, Grade 1 [1]: 3 (6.7) n (%)
Treatment-related TEAE, Anemia, Grade 2 [1]: 10 (22.2 ) n (%)
Treatment-related TEAE, Anemia, Grade 3/4 [1]: 7 (15.6) n (%)
Treatment-related TEAE, Anemia, Grade 5 [1]: 0 n (%)
Treatment-related TEAE, Anemia, Total [1]: 20 (44.4 ) n (%)
Treatment-related TEAE, Any adverse event, Grade 1 [1]: 9 (20.0) n (%)
Treatment-related TEAE, Any adverse event, Grade 2 [1]: 17 (37.8 ) n (%)
Treatment-related TEAE, Any adverse event, Grade 3/4 [1]: 19 (42.2 ) n (%)
Treatment-related TEAE, Any adverse event, Grade 5 [1]: 0 n (%)
Treatment-related TEAE, Any adverse event, Total [1]: 45 (100. 0) n (%)
Treatment-related TEAE, Constipation, Grade 1 [1]: 4 (8.9) n (%)
Treatment-related TEAE, Constipation, Grade 2 [1]: 5 (11.1) n (%)
Treatment-related TEAE, Constipation, Grade 3/4 [1]: 0 n (%)
Treatment-related TEAE, Constipation, Grade 5 [1]: 0 n (%)
Treatment-related TEAE, Constipation, Total [1]: 9 (20.0) n (%)
Treatment-related TEAE, Decreased appetite, Grade 1 [1]: 6 (13.3) n (%)
Treatment-related TEAE, Decreased appetite, Grade 2 [1]: 1 (2.2) n (%)
Treatment-related TEAE, Decreased appetite, Grade 3/4 [1]: 0 n (%)
Treatment-related TEAE, Decreased appetite, Grade 5 [1]: 0 n (%)
Treatment-related TEAE, Decreased appetite, Total [1]: 7 (15.6) n (%)
Treatment-related TEAE, Diarrhea, Grade 1 [1]: 7 (15.6) n (%)
Treatment-related TEAE, Diarrhea, Grade 2 [1]: 1 (2.2) n (%)
Treatment-related TEAE, Diarrhea, Grade 3/4 [1]: 2 (4.4) n (%)
Treatment-related TEAE, Diarrhea, Grade 5 [1]: 0 n (%)
Treatment-related TEAE, Diarrhea, Total [1]: 10 (22.2 ) n (%)
Treatment-related TEAE, Dizziness, Grade 1 [1]: 6 (13.3) n (%)
Treatment-related TEAE, Dizziness, Grade 2 [1]: 2 (4.4) n (%)
Treatment-related TEAE, Dizziness, Grade 3/4 [1]: 0 n (%)
Treatment-related TEAE, Dizziness, Grade 5 [1]: 0 n (%)
Treatment-related TEAE, Dizziness, Total [1]: 8 (17.8) n (%)
Treatment-related TEAE, Fatigue, Grade 1 [1]: 10 (22.2 ) n (%)
Treatment-related TEAE, Fatigue, Grade 2 [1]: 13 (28.9 ) n (%)
Treatment-related TEAE, Fatigue, Grade 3/4 [1]: 5 (11.1) n (%)
Treatment-related TEAE, Fatigue, Grade 5 [1]: 0 n (%)
Treatment-related TEAE, Fatigue, Total [1]: 28 (62.2 ) n (%)
Treatment-related TEAE, Headache, Grade 1 [1]: 12 (26.7 ) n (%)
Treatment-related TEAE, Headache, Grade 2 [1]: 4 (8.9) n (%)
Treatment-related TEAE, Headache, Grade 3/4 [1]: 0 n (%)
Treatment-related TEAE, Headache, Grade 5 [1]: 0 n (%)
Treatment-related TEAE, Headache, Total [1]: 16 (35.6 ) n (%)
Treatment-related TEAE, Leukopenia, Grade 1 [1]: 1 (2.2) n (%)
Treatment-related TEAE, Leukopenia, Grade 2 [1]: 8 (17.8) n (%)
Treatment-related TEAE, Leukopenia, Grade 3/4 [1]: 2 (4.4) n (%)
Treatment-related TEAE, Leukopenia, Grade 5 [1]: 0 n (%)
Treatment-related TEAE, Leukopenia, Total [1]: 11 (24.4 ) n (%)
Treatment-related TEAE, Nausea, Grade 1 [1]: 22 (48.9 ) n (%)
Treatment-related TEAE, Nausea, Grade 2 [1]: 6 (13.3) n (%)
Treatment-related TEAE, Nausea, Grade 3/4 [1]: 1 (2.2) n (%)
Treatment-related TEAE, Nausea, Grade 5 [1]: 0 n (%)
Treatment-related TEAE, Nausea, Total [1]: 29 (64.4 ) n (%)
Treatment-related TEAE, Neutropenia, Grade 1 [1]: 4 (8.9) n (%)
Treatment-related TEAE, Neutropenia, Grade 2 [1]: 5 (11.1) n (%)
Treatment-related TEAE, Neutropenia, Grade 3/4 [1]: 13 (28.9 ) n (%)
Treatment-related TEAE, Neutropenia, Grade 5 [1]: 0 n (%)
Treatment-related TEAE, Neutropenia, Total [1]: 22 (48.9 ) n (%)
Treatment-related TEAE, Thrombocytopenia, Grade 1 [1]: 5 (11.1) n (%)
Treatment-related TEAE, Thrombocytopenia, Grade 2 [1]: 2 (4.4) n (%)
Treatment-related TEAE, Thrombocytopenia, Grade 3/4 [1]: 3 (6.7) n (%)
Treatment-related TEAE, Thrombocytopenia, Grade 5 [1]: 0 n (%)
Treatment-related TEAE, Thrombocytopenia, Total [1]: 10 (22.2 ) n (%)
Treatment-related TEAE, Vomiting, Grade 1 [1]: 12 (26.7 ) n (%)
Treatment-related TEAE, Vomiting, Grade 2 [1]: 3 (6.7) n (%)
Treatment-related TEAE, Vomiting, Grade 3/4 [1]: 1 (2.2) n (%)
Treatment-related TEAE, Vomiting, Grade 5 [1]: 0 n (%)
Treatment-related TEAE, Vomiting, Total [1]: 16 (35.6 ) n (%)
Treatment-related TEAE, Abdominal pain, Grade 1 [2]: 0 n (%)
Treatment-related TEAE, Abdominal pain, Grade 2 [2]: 0 n (%)
Treatment-related TEAE, Abdominal pain, Grade 3/4 [2]: 0 n (%)
Treatment-related TEAE, Abdominal pain, Grade 5 [2]: 0 n (%)
Treatment-related TEAE, Abdominal pain, Total [2]: 0 n (%)
Treatment-related TEAE, Alopecia, Grade 1 [2]: 6 (21.4) n (%)
Treatment-related TEAE, Alopecia, Grade 2 [2]: 2 (7.1) n (%)
Treatment-related TEAE, Alopecia, Grade 3/4 [2]: 0 n (%)
Treatment-related TEAE, Alopecia, Grade 5 [2]: 0 n (%)
Treatment-related TEAE, Alopecia, Total [2]: 8 (28.6) n (%)
Treatment-related TEAE, Anemia, Grade 1 [2]: 4 (14.3) n (%)
Treatment-related TEAE, Anemia, Grade 2 [2]: 3 (10.7) n (%)
Treatment-related TEAE, Anemia, Grade 3/4 [2]: 3 (10.7) n (%)
Treatment-related TEAE, Anemia, Grade 5 [2]: 0 n (%)
Treatment-related TEAE, Anemia, Total [2]: 10 (35.7 ) n (%)
Treatment-related TEAE, Any adverse event, Grade 1 [2]: 7 (25.0) n (%)
Treatment-related TEAE, Any adverse event, Grade 2 [2]: 8 (28.6) n (%)
Treatment-related TEAE, Any adverse event, Grade 3/4 [2]: 8 (28.6) n (%)
Treatment-related TEAE, Any adverse event, Grade 5 [2]: 1 (3.6) n (%)
Treatment-related TEAE, Any adverse event, Total [2]: 24 (85.7 ) n (%)
Treatment-related TEAE, Constipation, Grade 1 [2]: 1 (3.6) n (%)
Treatment-related TEAE, Constipation, Grade 2 [2]: 2 (7.1) n (%)
Treatment-related TEAE, Constipation, Grade 3/4 [2]: 0 n (%)
Treatment-related TEAE, Constipation, Grade 5 [2]: 0 n (%)
Treatment-related TEAE, Constipation, Total [2]: 3 (10.7) n (%)
Treatment-related TEAE, Decreased appetite, Grade 1 [2]: 2 (7.1) n (%)
Treatment-related TEAE, Decreased appetite, Grade 2 [2]: 0 n (%)
Treatment-related TEAE, Decreased appetite, Grade 3/4 [2]: 0 n (%)
Treatment-related TEAE, Decreased appetite, Grade 5 [2]: 0 n (%)
Treatment-related TEAE, Decreased appetite, Total [2]: 2 (7.1) n (%)
Treatment-related TEAE, Diarrhea, Grade 1 [2]: 4 (14.3) n (%)
Treatment-related TEAE, Diarrhea, Grade 2 [2]: 1 (3.6) n (%)
Treatment-related TEAE, Diarrhea, Grade 3/4 [2]: 0 n (%)
Treatment-related TEAE, Diarrhea, Grade 5 [2]: 0 n (%)
Treatment-related TEAE, Diarrhea, Total [2]: 5 (17.9) n (%)
Treatment-related TEAE, Dizziness, Grade 1 [2]: 0 n (%)
Treatment-related TEAE, Dizziness, Grade 2 [2]: 1 (3.6) n (%)
Treatment-related TEAE, Dizziness, Grade 3/4 [2]: 0 n (%)
Treatment-related TEAE, Dizziness, Grade 5 [2]: 0 n (%)
Treatment-related TEAE, Dizziness, Total [2]: 1 (3.6) n (%)
Treatment-related TEAE, Fatigue, Grade 1 [2]: 7 (25.0) n (%)
Treatment-related TEAE, Fatigue, Grade 2 [2]: 0 n (%)
Treatment-related TEAE, Fatigue, Grade 3/4 [2]: 2 (7.1) n (%)
Treatment-related TEAE, Fatigue, Grade 5 [2]: 0 n (%)
Treatment-related TEAE, Fatigue, Total [2]: 9 (32.1) n (%)
Treatment-related TEAE, Headache, Grade 1 [2]: 9 (32.1) n (%)
Treatment-related TEAE, Headache, Grade 2 [2]: 0 n (%)
